Active and inactive are the calls of the source. The calls are words filed in the database; no cut-off is given here.
Columns and labels:
Cannabinoid receptor 1 = Cannabinoid receptor 1 (Homo sapiens, UniProt P21554); assay: Displacement of [3H]CP55,940 from human recombinant CB1 receptor expressed in HEK293 cell membranes after 90 mins
Cannabinoid receptor 2 [1] = target: T1, Cannabinoid receptor 2 (Homo sapiens, UniProt P34972); assay: Displacement of [3H]CP55,940 from human recombinant CB2 receptor expressed in HEK293 cell membranes after 90 mins
T1 sequence (P34972 whole entry): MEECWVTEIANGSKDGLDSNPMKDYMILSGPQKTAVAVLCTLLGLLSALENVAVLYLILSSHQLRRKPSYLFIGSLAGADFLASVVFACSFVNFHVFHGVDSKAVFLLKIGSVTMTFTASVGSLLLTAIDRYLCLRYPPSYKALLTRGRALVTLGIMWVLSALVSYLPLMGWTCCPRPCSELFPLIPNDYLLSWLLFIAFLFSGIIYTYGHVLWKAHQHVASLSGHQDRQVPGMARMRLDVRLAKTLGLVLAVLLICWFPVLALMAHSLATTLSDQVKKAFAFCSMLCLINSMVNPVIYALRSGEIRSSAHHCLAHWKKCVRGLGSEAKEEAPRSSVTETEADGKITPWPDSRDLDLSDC

HEK293 = assay: Selectivity index, ratio of Ki for human recombinant CB1 receptor expressed in HEK293 cell membranes to Ki for human recombinant CB2 receptor expressed in HEK293 cell membranes; assay type: cell-based
Cannabinoid receptor 2 [2] = target: T1, Cannabinoid receptor 2; assay: Antagonist activity at human CB2 receptor expressed in CHO cell membranes assessed as inhibition of HU-210-induced [35S]GTPgammaS binding; assay type: functional
Cannabinoid receptor 2 [3] = target: T1, Cannabinoid receptor 2; assay: Activity at human CB2 receptor expressed in CHO cell membranes by [35S]GTPgammaS binding assay; assay type: functional
Cannabinoid receptor 2 [4] = target: T1, Cannabinoid receptor 2; assay: Neutral antagonist activity at human CB2 receptor expressed in CHO membranes assessed as inhibition of inverse agonist SR144528-induced responses by [35S]GTPgammaS binding assay; assay type: functional, cell membranes
Cannabinoid receptor 2 [5] = target: T1, Cannabinoid receptor 2; assay: Neutral antagonist activity at human CB2 receptor expressed in CHO membranes assessed as inhibition of agonist HU-210-induced responses by [35S]GTPgammaS binding assay; assay type: functional, cell membranes
Cannabinoid receptor 2 [6] = target: T1, Cannabinoid receptor 2; assay: Competitive antagonist activity at human CB2 receptor expressed in CHO membranes assessed as inhibition of HU-210-induced [35S]GTPgammaS binding by Schild-plot; assay type: functional, cell membranes; details: read-out: pA2 (converted)
Cannabinoid receptor 2 [7] = target: T1, Cannabinoid receptor 2; assay: Agonist activity at human CB2 receptor expressed in CHO cell membranes by [35S]GTPgammaS binding assay; assay type: functional
[8] = target: Cannabinoid receptor 1 (Rattus norvegicus) (UniProt P20272); assay: Agonist activity at CB1 receptor in rat cerebellar membranes at < 10 uM by [35S]GTPgammaS binding assay; assay type: functional, cell membranes; details: Cerebellum, Membrane
Sequence of Cannabinoid receptor 1 (Rattus norvegicus) (P20272 whole entry): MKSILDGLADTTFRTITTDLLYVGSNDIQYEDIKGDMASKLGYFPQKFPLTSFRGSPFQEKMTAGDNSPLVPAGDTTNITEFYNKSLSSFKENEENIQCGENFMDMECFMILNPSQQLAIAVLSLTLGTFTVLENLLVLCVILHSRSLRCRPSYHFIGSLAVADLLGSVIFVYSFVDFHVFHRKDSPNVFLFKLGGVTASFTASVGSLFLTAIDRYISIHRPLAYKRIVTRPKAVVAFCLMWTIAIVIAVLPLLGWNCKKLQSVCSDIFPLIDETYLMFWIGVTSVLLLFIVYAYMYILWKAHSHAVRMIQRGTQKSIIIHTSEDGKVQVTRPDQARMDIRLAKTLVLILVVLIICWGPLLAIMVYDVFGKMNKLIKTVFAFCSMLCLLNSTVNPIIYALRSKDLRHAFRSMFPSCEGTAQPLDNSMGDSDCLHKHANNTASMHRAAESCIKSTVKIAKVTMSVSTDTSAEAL

[9] = target: Cannabinoid receptor 1 (Rattus norvegicus) (UniProt P20272); assay: Antagonist activity at CB1 receptor in rat cerebellar membranes assessed as inhibition of HU-210-induced [35S]GTPgammaS binding at 10 uM; assay type: functional, cell membranes; details: Cerebellum, Membrane

Sequence of Cannabinoid receptor 1 (P21554 whole entry): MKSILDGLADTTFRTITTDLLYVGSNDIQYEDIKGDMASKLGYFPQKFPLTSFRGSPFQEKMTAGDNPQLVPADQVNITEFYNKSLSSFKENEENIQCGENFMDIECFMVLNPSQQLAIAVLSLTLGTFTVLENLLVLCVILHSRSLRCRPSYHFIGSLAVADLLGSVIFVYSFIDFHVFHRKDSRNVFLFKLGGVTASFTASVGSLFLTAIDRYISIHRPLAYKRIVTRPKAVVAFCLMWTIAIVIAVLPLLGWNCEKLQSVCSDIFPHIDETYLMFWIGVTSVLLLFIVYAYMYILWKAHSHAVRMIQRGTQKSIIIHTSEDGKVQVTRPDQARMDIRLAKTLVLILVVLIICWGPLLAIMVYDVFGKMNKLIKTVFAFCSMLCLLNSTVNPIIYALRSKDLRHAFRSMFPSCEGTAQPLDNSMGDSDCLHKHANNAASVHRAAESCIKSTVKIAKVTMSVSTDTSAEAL

Structure (SMILES)	Ki (Cannabinoid receptor 1)	Ki (Cannabinoid receptor 2 [1])	Ratio Ki (HEK293)	further results
CCCCc1cc(-c2ccc(OC)cc2)cc(C(=O)NC2CCCCCC2)c1OC	1490 nM	11.5 nM	130	inhibition (Cannabinoid receptor 2 [2]): Active; Activity (Cannabinoid receptor 2 [3]): inactive; inhibition (Cannabinoid receptor 2 [4]): Dose-dependent effect; inhibition (Cannabinoid receptor 2 [5]): Dose-dependent effect; Kb (Cannabinoid receptor 2 [6]): 794 nM
COc1c(C)cc(-c2ccccc2)cc1C(=O)N[C@H]1CC[C@H](C)CC1	1530 nM	90 nM	17	
COc1c(C)cc(-c2ccccc2)cc1C(=O)N[C@H]1CC[C@@H](C)CC1	1090 nM	150 nM	7.27	
COc1c(C)cc(-c2ccc(F)cc2)cc1C(=O)NC1CCCCCC1	160 nM	60 nM	2.67	EC50 (Cannabinoid receptor 2 [7]): 398 nM; Activity [8]: inactive; inhibition [9]: Active
COc1c(C)cc(-c2ccccc2)cc1C(=O)NC1CCCCCC1	870 nM	100 nM	8.7	
COc1c(C)cc(-c2ccc(F)cc2)cc1C(=O)N[C@H]1CC[C@H](C)CC1	620 nM	90 nM	6.89	
COc1ccc(-c2cc(C)c(OC)c(C(=O)NC3CCCCCC3)c2)cc1	> 10000 nM	> 10000 nM		
COc1c(C)cc(-c2ccc(F)cc2)cc1C(=O)N[C@H]1CC[C@@H](C)CC1	180 nM	60 nM	3	EC50 (Cannabinoid receptor 2 [7]): 398 nM; Activity [8]: inactive; inhibition [9]: Active
COc1ccc(-c2cc(C)c(OC)c(C(=O)N[C@H]3CC[C@H](C)CC3)c2)cc1	> 10000 nM	> 10000 nM		
CCCCc1cc(-c2ccc(OC)cc2)cc(C(=O)N[C@H]2CC[C@@H](C)CC2)c1OC	1550 nM	22 nM	70	inhibition (Cannabinoid receptor 2 [2]): Active; Activity (Cannabinoid receptor 2 [3]): inactive
CCCC(C)(C)c1ccc2c(c1)OC(C)(C)[C@@H]1CC=C(C)C[C@@H]21			226	
COc1ccc(-c2cc(C)c(OC)c(C(=O)N[C@H]3CC[C@@H](C)CC3)c2)cc1	> 10000 nM	> 10000 nM		
CCCCc1cc(-c2ccc(OC)cc2)cc(C(=O)N[C@H]2CC[C@H](C)CC2)c1OC	2290 nM	143 nM	16	inhibition (Cannabinoid receptor 2 [2]): Active; Activity (Cannabinoid receptor 2 [3]): inactive

Source: ChEMBL document CHEMBL3397007, “Synthesis, biological activity and molecular modeling of new biphenylic carboxamides as potent and selective CB2 receptor ligands” (Eur J Med Chem, 2015)
